Assay results as given in patent US11236059B2, “Targeted cytotoxic ratjadone derivatives and conjugates thereof” (HELMHOLTZ-ZENTRUM FUER INFEKTIONSFORSCHUNG GMBH, priority 2017, dated 2022).

Each molecule was assayed on KB 3.1 (DSMZ ACC 158) cells (assay: Cell proliferation assay under folate free conditions). Settings: RPMI-medium without folic acid + 10% dialyzed fetal calf serum; MTT assay after 1, 2 and 5 days (day of the value not given); read-out: IC50 [nM] KB 3.1 (Folate-Ratjadone Conjugates).
Assay type: cell-based
Protocol: KB 3.1 (DSMZ ACC 158) cells were cultivated at 37° C. and 10% C002 in RMPI-medium without folic acid (Gibco) with 10% fetal calf serum (Gibco). 120 μL of suspended cells (100.000/mL) were seeded in wells of 96-well plates and after 24 h at 37° C. and 10% CO2 the medium was removed, the cells were washed with PBS and RPMI-medium without folic acid (Gibco)+10% dialyzed fetal calf serum (Sigma) were added to the cells, before after additional 24 h at 37° C. and 10% C002 60 μL of serial dilutions of the test compound were given to cells. After 1, 2 and 5 days of incubation growth inhibition (IC50) was determined using an MTT assay.^[64]

Going from `C/C=C/[C@@H]1O[C@H]([C@@H](/C=C/C=C(\C)C[C@@H](C)/C=C(C)\C=C\[C@H]2CC=CC(=O)O2)NC(=O)OCCc2cn(CCC[C@H](NC(=O)CC[C@H](NC(=O)CC[C@H](NC(=O)c3ccc(NCc4cnc5nc(N)nc(O)c5n4)cc3)C(=O)O)C(=O)O)C(=O)O)nn2)C[C@@H](O)[C@@H]1C` [FA-7-16R-Aminoratjadone, N^2-(4-(((2-amino-4-hydroxypteridin-6-yl)methyl)amino)benzoyl)-N^5—((S)-1-carboxy-4-(((S)-1-carboxy-4-(4-(2-((((1R,2E,4E,7R,8Z,10E)-1-((2S,4R,5S,6S)-4-hydroxy-5-methyl-6-((E)-prop-1-en-1-yl)tetrahydro-2H-pyran-2-yl)-5,7,9-trimethyl-11-((R)-6-oxo-3,6-dihydro-2H-pyran-2-yl)undeca-2,4,8,10-tetraen-1-yl)carbamoyl)oxy)ethyl)-1H-1,2,3-triazol-1-yl)butyl)amino)-4-oxobutyl)-L-glutamine] to `C/C=C/[C@@H]1O[C@H]([C@@H](/C=C/C=C(\C)C[C@@H](C)/C=C(C)\C=C\[C@H]2CC=CC(=O)O2)NC(=O)OCCc2cn(CCC[C@H](NC(=O)CC[C@H](NC(=O)c3ccc(NCc4cnc5nc(N)nc(O)c5n4)cc3)C(=O)O)C(=O)N[C@H](CCCCN)C(=O)O)nn2)C[C@@H](O)[C@@H]1C` [FA-9-16R-Aminoratjadone, ((S)-2-((S)-4-(4-(((2-amino-4-hydroxypteridin-6-yl)methyl)amino)benzamido)-4-carboxybutanamido)-5-(4-(2-((((1R,2E,4E,7R,8Z,10E)-1-((2S,4R,5S,6S)-4-hydroxy-5-methyl-6-((E)-prop-1-en-1-yl)tetrahydro-2H-pyran-2-yl)-5,7,9-trimethyl-11-((R)-6-oxo-3,6-dihydro-2H-pyran-2-yl)undeca-2,4,8,10-tetraen-1-yl)carbamoyl)oxy)ethyl)-1H-1,2,3-triazol-1-yl)pentanoyl)-D-lysine], the IC50 falls from 190 nM to 47.6 nM (4-fold). The second is the more potent here.

`C/C=C/[C@@H]1O[C@H]([C@@H](/C=C/C=C(\C)C[C@@H](C)/C=C(C)\C=C\[C@H]2CC=CC(=O)O2)NC(=O)OCc2ccc(NC(=O)[C@H](CCCNC(N)=O)NC(=O)[C@@H](NC(=O)OC[C@@H]3[C@@H]4CCc5nnn(CCC[C@H](NC(=O)CC[C@H](NC(=O)CC[C@H](NC(=O)c6ccc(NCc7cnc8nc(N)nc(O)c8n7)cc6)C(=O)O)C(=O)O)C(=O)O)c5CC[C@@H]43)C(C)C)cc2)C[C@@H](O)[C@@H]1C` [FA-7-Val-Cit-PABA-16R-Aminoratjadone] and `C/C=C/[C@@H]1O[C@H]([C@@H](/C=C/C=C(\C)C[C@@H](C)/C=C(C)\C=C\[C@H]2CC=CC(=O)O2)NC(=O)OCc2ccc(NC(=O)[C@H](CCCNC(N)=O)NC(=O)[C@@H](NC(=O)OC[C@@H]3[C@@H]4CCc5nnn(CCC[C@H](NC(=O)CC[C@H](NC(=O)c6ccc(NCc7cnc8nc(N)nc(O)c8n7)cc6)C(=O)O)C(=O)N[C@H](CCCCN)C(=O)O)c5CC[C@@H]43)C(C)C)cc2)C[C@@H](O)[C@@H]1C` [FA-9-Val-Cit-PABA-16R-Aminoratjadone] are within 1.5-fold of each other in IC50: 34.3 nM for the first, 50.9 nM for the second.

Compared with `C/C=C/[C@@H]1O[C@H]([C@@H](/C=C/C=C(\C)C[C@@H](C)/C=C(C)\C=C\[C@H]2CC=CC(=O)O2)NC(=O)OCCc2cn(-c3ccc(C(=O)NCCCC[C@H](NC(=O)CC[C@H](NC(=O)c4ccc(NCc5cnc6nc(N)nc(O)c6n5)cc4)C(=O)O)C(=O)N[C@H](CCCCN)C(=O)O)cc3)nn2)C[C@@H](O)[C@@H]1C` [FA-8-16R-Aminoratjadone, N^2—((S)-4-(4-(((2-amino-4-hydroxypteridin-6-yl)methyl)amino)benzamido)-4-carboxybutanoyl)-N^6-(4-(4-(2-((((1R,2E,4E,7R,8Z,10E)-1-((2S,4R,5S,6S)-4-hydroxy-5-methyl-6-((E)-prop-1-en-1-yl)tetrahydro-2H-pyran-2-yl)-5,7,9-trimethyl-11-((R)-6-oxo-3,6-dihydro-2H-pyran-2-yl)undeca-2,4,8,10-tetraen-1-yl)carbamoyl)oxy)ethyl)-1H-1,2,3-triazol-1-yl)benzoyl)-L-lysyl-D-lysine], `C/C=C/[C@@H]1O[C@H]([C@@H](/C=C/C=C(\C)C[C@@H](C)/C=C(C)\C=C\[C@H]2CC=CC(=O)O2)NC(=O)OCc2ccc(NC(=O)[C@H](CCCNC(N)=O)NC(=O)[C@@H](NC(=O)OC[C@@H]3[C@@H]4CCc5nnn(-c6ccc(C(=O)NCCCC[C@H](NC(=O)CC[C@H](NC(=O)c7ccc(NCc8cnc9nc(N)nc(O)c9n8)cc7)C(=O)O)C(=O)N[C@H](CCCCN)C(=O)O)cc6)c5CC[C@@H]43)C(C)C)cc2)C[C@@H](O)[C@@H]1C` [FA-8-Val-Cit-PABA-16R-Aminoratjadone] is 3.2-fold lower in IC50: 129 nM for the first, 39.9 nM for the second. The second is the more potent here.

Going from `C/C=C/[C@@H]1O[C@H]([C@@H](/C=C/C=C(\C)C[C@@H](C)/C=C(C)\C=C\[C@H]2CC=CC(=O)O2)NC(=O)OCCc2cn(CCC[C@H](NC(=O)[C@@H](CC(=O)O)NC(=O)[C@@H](CC(=O)O)NC(=O)[C@@H](CC(=O)O)NC(=O)CC[C@H](NC(=O)c3ccc(NCc4cnc5nc(N)nc(O)c5n4)cc3)C(=O)O)C(=O)N[C@H](CC(=O)O)C(=O)N[C@H](CC(=O)O)C(=O)N[C@H](CCCCN)C(=O)O)nn2)C[C@@H](O)[C@@H]1C` [FA-10-16R-Aminoratjadone] to `C/C=C/[C@@H]1O[C@H]([C@@H](/C=C/C=C(\C)C[C@@H](C)/C=C(C)\C=C\[C@H]2CC=CC(=O)O2)NC(=O)OCc2ccc(NC(=O)[C@H](CCCNC(N)=O)NC(=O)[C@@H](NC(=O)OC[C@@H]3[C@@H]4CCc5nnn(CCC[C@H](NC(=O)[C@@H](CC(=O)O)NC(=O)[C@@H](CC(=O)O)NC(=O)[C@@H](CC(=O)O)NC(=O)CC[C@H](NC(=O)c6ccc(NCc7cnc8nc(N)nc(O)c8n7)cc6)C(=O)O)C(=O)N[C@H](CC(=O)O)C(=O)N[C@H](CC(=O)O)C(=O)N[C@H](CCCCN)C(=O)O)c5CC[C@@H]43)C(C)C)cc2)C[C@@H](O)[C@@H]1C` [FA-10-Val-Cit-PABA-16R-Aminoratjadone], the IC50 falls from 708 nM to 35.3 nM (20-fold). The second is the more potent here.

First: C/C=C/[C@@H]1O[C@H]([C@@H](/C=C/C=C(\C)C[C@@H](C)/C=C(C)\C=C\[C@H]2CC=CC(=O)O2)NC(=O)OCc2ccc(NC(=O)[C@H](CCCNC(N)=O)NC(=O)[C@@H](NC(=O)OC[C@@H]3[C@@H]4CCc5nnn(CCC[C@H](NC(=O)[C@@H](CC(=O)O)NC(=O)[C@@H](CC(=O)O)NC(=O)[C@H](CCCn6nnc7c6CC[C@H]6[C@@H](CC7)[C@H]6COC(=O)N[C@H](C(=O)N[C@@H](CCCNC(N)=O)C(=O)Nc6ccc(COC(=O)N[C@H](/C=C/C=C(\C)C[C@@H](C)/C=C(C)\C=C\[C@H]7CC=CC(=O)O7)[C@@H]7C[C@@H](O)[C@H](C)[C@H](/C=C/C)O7)cc6)C(C)C)NC(=O)[C@@H](CC(=O)O)NC(=O)[C@@H](CC(=O)O)NC(=O)[C@H](CCCn6nnc7c6CC[C@H]6[C@@H](CC7)[C@H]6COC(=O)N[C@H](C(=O)N[C@@H](CCCNC(N)=O)C(=O)Nc6ccc(COC(=O)N[C@H](/C=C/C=C(\C)C[C@@H](C)/C=C(C)\C=C\[C@H]7CC=CC(=O)O7)[C@@H]7C[C@@H](O)[C@H](C)[C@H](/C=C/C)O7)cc6)C(C)C)NC(=O)[C@@H](CC(=O)O)NC(=O)[C@@H](CC(=O)O)NC(=O)CC[C@H](NC(=O)c6ccc(NCc7cnc8nc(N)nc(O)c8n7)cc6)C(=O)O)C(=O)O)c5CC[C@@H]43)C(C)C)cc2)C[C@@H](O)[C@@H]1C [FA-11-(Val-Cit-PABA-16R-Aminoratjadone)3]
Second: C/C=C/[C@@H]1O[C@H]([C@@H](/C=C/C=C(\C)C[C@@H](C)/C=C(C)\C=C\[C@H]2CC=CC(=O)O2)NC(=O)CCSSC[C@H](NC(=O)CC[C@H](NC(=O)c2ccc(NCc3cnc4nc(N)nc(O)c4n3)cc2)C(=O)O)C(=O)O)C[C@@H](O)[C@@H]1C [FA-SS-16R-Aminoratjadone, N^2-(4-(((2-amino-4-hydroxypteridin-6-yl)methyl)amino)benzoyl)-N^5-((R)-1-carboxy-2-((3-(((1R,2E,4E,7R,8Z,10E)-1-((2S,4R,5S,6S)-4-hydroxy-5-methyl-6-((E)-prop-1-en-1-yl)tetrahydro-2H-pyran-2-yl)-5,7,9-trimethyl-11-((R)-6-oxo-3,6-dihydro-2H-pyran-2-yl)undeca-2,4,8,10-tetraen-1-yl)amino)-3-oxopropyl)disulfaneyl)ethyl)-L-glutamine]
The IC50 of the first is 6.6-fold lower: 45 nM for the first, 295 nM for the second. The first is the more potent here.
